Assay results published in patent US9371331B2, “Modulators of methyl modifying enzymes, compositions and uses thereof” (Constellation Pharmaceuticals, Inc., priority 2012, dated 2016).
Where two headings read alike, the source gives them in different places.

Key:
[1] = target: EZH2 (rPRC2) (Homo sapiens, UniProt Q15910); experiment: EZH2 assay: rPRC2, biotinylated oligonucleosomes, 3H SAM methyl transfer (FlashPlate scintillation); type: biochemical; settings: biotinylated oligonucleosome substrate
[2] = system: H3K27me3 mark in HeLa cells; experiment: H3K27me3 Alpha Hela Assay (AlphaLISA); type: cell-based; settings: 72 hrs; for EC50: Homo sapiens, read-out: H3K27me3_Alpha_HeLa_ (EC50)
Description: H3K27me3 Alpha Hela Assay (AlphaLISA).
Ten different doses of each test compound (in a series of 3-fold dilutions) were plated in duplicate 384-well tissue culture treated plates (Catalog #781080; Greiner Bio One; Monroe, N.C.). Hela cells grown in culture were trypsinized and counted using a Countess® cell counter (Catalog #C10281; Life Technologies, Grand Island, N.Y.). Cell were diluted to 67,000 cells per mL in 10% DMEM (Catalog #10569-010 Life Technologies. Grand Island, N.Y.) and 15 μL (1,000 cells) were plated into each well using the Biotek MicroFlo™ Select Dispenser (BioTek Instruments. Inc. Vermont, USA),) of the 384-well plate. Plates were incubated at 37° C./5% CO2 for 72 hrs. One of the duplicate plates was processed for HeLa assay and the other for viability.
To the plate processed for AlphaLISA was added 5 μL per well Cell-Histone Lysis buffer (1×) (Catalog #AL009F1 Perkin Elmer; Waltham, Mass.) and the plate was incubated at RT for 30 minutes on a plate shaker with low speed (Model#4625-Q Thermo Scientific; Waltham, Mass.). Then, 10 µL per well Histone Extraction buffer (catalog #AL009F2: Perkin Elmer; Waltham, Mass.) was added and the plate further incubated at RT for 20 min on plate shaker with low speed. To each well was then added 10 μL per well of a 5× mix of anti-K27me3 acceptor beads plus Biotinylated anti-Histone H3 (C-ter) Antibody (diluted to 3 nM final) (Catalog #AL118 Perkin Elmer; Waltham, Mass.). Dilution of the acceptor beads and then anti-Histone H3 was with 1× Histone Detection buffer (Catalog #AL009F3 Perkin Elmer; Waltham, Mass.) which was produced diluted from the 10× stock provided. The plate was sealed with an aluminum plate sealer and incubated at 23° C. for 60 min. We then added 10 μL 5× solution of Streptavidin Donor beads (Catalog #6760002 Perkin Elmer; Waltham, Mass.) (20 μg/mL final in 1× Histone Detection Buffer), sealed the plate with Aluminum plate sealer and incubated at 23° C. for 30 min. The plates were then read using an EnVision-Alpha Reader (model #2104 Perkin Elmer: Waltham, Mass.).
Data from both assays was analyzed using Assay Assistant (Constellation Pharmaceuticals In-house product) and Activity Base (IDBS Ltd. Surrey, UK) template. Data files were imported to Assay Assistant and assay conditions were specified. A unique Analysis ID was created and the data files exported to Activity Base. An analysis template was created on Activity Base to measure dose-dependent inhibition of H3K27me3 mark and cell viability respectively. Readout of DMSO wells were used to normalize the data. Resulting curves were fitted using Activity base software Model 205 (IDBS Ltd, Surrey, UK). The data was checked for quality, validated and integrated in excel format using SARview (IDBS Ltd, Surrey, UK).

[3] = target: Y641N EZH2 (Homo sapiens, UniProt Q15910, Y641N); experiment: Y641N EZH2 assay: as EZH2 assay, with reconstituted H3K27Me2 oligonucleosomes as substrate; type: biochemical
[4] = EZH2 IC50, wild-type EZH2 (rPRC2)
[5] = Y641N EZH2 IC50, Y641N mutant EZH2, H3K27Me2 oligonucleosome substrate

Chain of Y641N EZH2 (Q15910 whole entry Y641N): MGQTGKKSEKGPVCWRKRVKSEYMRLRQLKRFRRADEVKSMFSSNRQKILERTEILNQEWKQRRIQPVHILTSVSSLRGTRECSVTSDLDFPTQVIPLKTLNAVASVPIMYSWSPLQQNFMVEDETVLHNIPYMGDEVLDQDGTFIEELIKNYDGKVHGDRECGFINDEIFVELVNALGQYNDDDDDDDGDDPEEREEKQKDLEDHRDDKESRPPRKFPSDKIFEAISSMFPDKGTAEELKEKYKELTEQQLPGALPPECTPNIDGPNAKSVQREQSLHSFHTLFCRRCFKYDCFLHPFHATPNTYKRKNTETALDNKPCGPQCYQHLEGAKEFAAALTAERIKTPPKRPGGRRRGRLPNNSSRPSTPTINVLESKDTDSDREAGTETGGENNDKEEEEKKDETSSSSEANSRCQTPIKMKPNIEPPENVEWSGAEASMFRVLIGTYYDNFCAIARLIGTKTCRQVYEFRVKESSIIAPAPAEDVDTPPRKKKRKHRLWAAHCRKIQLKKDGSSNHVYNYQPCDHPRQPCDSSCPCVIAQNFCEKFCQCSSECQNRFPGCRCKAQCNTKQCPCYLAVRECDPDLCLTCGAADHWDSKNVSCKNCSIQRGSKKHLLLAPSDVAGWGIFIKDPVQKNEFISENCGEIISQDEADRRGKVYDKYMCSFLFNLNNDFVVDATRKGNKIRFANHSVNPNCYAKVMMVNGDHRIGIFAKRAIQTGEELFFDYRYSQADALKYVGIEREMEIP
Chain of Y641N EZH2 (O75530 whole entry partner): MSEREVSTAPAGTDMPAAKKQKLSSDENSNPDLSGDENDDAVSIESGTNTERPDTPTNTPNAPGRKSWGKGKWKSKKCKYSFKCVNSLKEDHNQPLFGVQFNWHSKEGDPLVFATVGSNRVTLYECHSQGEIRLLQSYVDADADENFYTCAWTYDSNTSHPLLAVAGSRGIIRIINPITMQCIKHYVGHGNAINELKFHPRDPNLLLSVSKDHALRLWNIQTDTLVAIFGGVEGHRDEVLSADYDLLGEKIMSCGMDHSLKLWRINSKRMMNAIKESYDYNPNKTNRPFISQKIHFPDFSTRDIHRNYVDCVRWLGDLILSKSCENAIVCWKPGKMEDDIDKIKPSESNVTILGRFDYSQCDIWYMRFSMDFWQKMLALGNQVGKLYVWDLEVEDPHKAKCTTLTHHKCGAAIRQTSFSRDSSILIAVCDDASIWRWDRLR
Chain of Y641N EZH2 (Q15022 whole entry partner): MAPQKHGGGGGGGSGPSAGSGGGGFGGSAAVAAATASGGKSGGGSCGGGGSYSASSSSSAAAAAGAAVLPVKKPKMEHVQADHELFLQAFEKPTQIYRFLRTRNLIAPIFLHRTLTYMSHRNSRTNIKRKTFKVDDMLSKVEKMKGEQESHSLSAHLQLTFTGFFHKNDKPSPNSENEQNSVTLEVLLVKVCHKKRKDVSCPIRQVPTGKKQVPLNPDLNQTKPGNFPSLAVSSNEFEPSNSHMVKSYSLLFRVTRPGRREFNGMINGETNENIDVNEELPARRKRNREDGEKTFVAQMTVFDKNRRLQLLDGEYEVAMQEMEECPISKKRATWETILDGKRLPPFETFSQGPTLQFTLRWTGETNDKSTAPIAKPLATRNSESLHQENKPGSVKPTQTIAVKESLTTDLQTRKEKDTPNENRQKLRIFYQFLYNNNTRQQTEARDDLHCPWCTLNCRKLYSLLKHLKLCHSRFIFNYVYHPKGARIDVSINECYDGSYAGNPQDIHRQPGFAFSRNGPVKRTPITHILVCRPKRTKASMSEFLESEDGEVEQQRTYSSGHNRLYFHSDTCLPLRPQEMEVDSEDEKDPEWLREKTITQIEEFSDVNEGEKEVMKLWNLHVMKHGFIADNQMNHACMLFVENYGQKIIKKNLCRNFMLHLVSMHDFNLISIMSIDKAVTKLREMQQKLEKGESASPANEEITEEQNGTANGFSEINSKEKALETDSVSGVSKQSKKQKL
Chain of EZH2 (rPRC2) (Q15910 whole entry): as the sequence (Q15910 whole entry Y641N) above, with N641Y counted along it
Chain of EZH2 (rPRC2) (O75530 whole entry partner): as the sequence (O75530 whole entry partner) above
Chain of EZH2 (rPRC2) (Q15022 whole entry partner): as the sequence (Q15022 whole entry partner) above

SMILES | IC50 [1, 4] [nM] | H3K27me3_Alpha_HeLa_ (EC50) [2] | IC50 [3, 5] [nM] | EC50 [2] [nM] | IC50 ([1]; read-out: EZH2 IC50, wild-type EZH2 (rPRC2)) [nM] | IC50 ([3]; read-out: Y641N EZH2 IC50, Y641N mutant EZH2, H3K27Me2 oligonucleosome substrate) [nM]
COc1cc(C)[nH]c(=O)c1CNC(=O)c1c(C)n(C(C)c2ccnc(N3CCNCC3)c2)c2ccccc12 (racemic) [Compound 353, (±)-N-((4-methoxy-6-methyl-2-oxo-1,2-dihydropyridin-3-yl)methyl)-2-methyl-1-(1-(2-(piperazin-1-yl)pyridine-4-yl)ethyl)-1H-indole-3-carboxamide] | < 100 | *(3.33 μM) | < 100 | – | – | –
COc1cc(C)[nH]c(=O)c1CNC(=O)c1c(C)n(C(C)C2CN(S(C)(=O)=O)C2)c2ccccc12 (racemic) [Compound 354, (±)-N-((4-methoxy-6-methyl-2-oxo-1,2-dihydropyridin-3-yl)methyl)-2-methyl-1-(1-(1-(methylsulfonyl)azetidin-3-yl)ethyl)-1H-indole-3-carboxamide] | < 100 | – | < 100 | 400 to 2000 | – | –
Cc1cc(C)c(CNC(=O)c2c(C)n(C(C)C3CC3)c3ncccc23)c(=O)[nH]1 (single isomer, unassigned) [Compound 253, (R or S)-(±)-1-(1-cyclopropylethyl)-N-((4,6-dimethyl-2-oxo-1,2-dihydropyridin-3-yl)methyl)-2-methyl-1H-pyrrolo[2,3-b]pyridine-3-carboxamide] | – | – | – | < 400 | < 100 | 100 to 1000
COc1cc(C)[nH]c(=O)c1CNC(=O)c1c(C)n(C(C)C2CCOCC2)c2cc(Cl)ccc12 (single isomer, unassigned) [Compound 314, (R or S)-6-chloro-N-((4-methoxy-6-methyl-2-oxo-1,2-dihydropridin-3-1)methyl)-2-methyl-1-(1-(tetrahydro-2H-pyran-4-yl)ethyl)-1H-indole-3-carboxamide] | < 100 | – | < 100 | < 400 | – | –
Cc1cc(OC(F)F)c(CNC(=O)c2c(C)n(C(C)C3CCOCC3)c3ccccc23)c(=O)[nH]1 (single isomer, unassigned) [Compound 335, (R or S)-N-((4-(difluoromethoxy)-6-methyl-2-oxo-1,2-dihydropyridin-3-yl)methyl)-2-methyl-1-(1-(tetrahydro-2 H-pyran-4-yl)ethyl)-1 H-indole-3-carboxamide] | < 100 | – | < 100 | < 400 | – | –
COc1cc(C)[nH]c(=O)c1CNC(=O)c1c(C)n(C(C)C2CCN(C)CC2)c2ccccc12 (single isomer, unassigned) [Compound 343, (R or S)-N-((4-methoxy-6-methyl-2-oxo-1,2-dihydropyridin-3-yl)methyl)-2-methyl-1-(1-(1-methylpiperidin-4-yl)ethyl)-1H-indole-3-carboxamide] | < 100 | – | < 100 | 400 to 2000 | – | –
CCS(=O)(=O)C1(C(C)n2c(C)c(C(=O)NCc3c(OC)cc(C)[nH]c3=O)c3ccccc32)CCNCC1 (single isomer, unassigned) [Compound 345, (R or S)-1-(1-(4-(ethylsulfonyl)piperidin-4-yl)ethyl)-N-((4-methoxy-6-methyl-2-oxo-1,2-dihydropyridin-3-yl)methyl)-2-methyl-1 H-indole-3-carboxamide] | < 100 | – | < 100 | < 400 | – | –
COc1cc(C)[nH]c(=O)c1CNC(=O)c1c(C)n(C(C)C2CCN(C(=O)OC(C)C)CC2)c2ccccc12 (single isomer, unassigned) [Compound 346, (R or S)-isopropyl 4-(1-(3-((4-methoxy-6-methyl-2-oxo-1,2-dihydropyridin-3-yl)methylcarbamoyl)-2-methyl-1H-indol-1-yl)ethyl)piperidine-1-carboxylate] | < 100 | – | < 100 | < 400 | – | –
COc1cc(C)[nH]c(=O)c1CNC(=O)c1c(C)n(C(C)C2CCN(CCO)CC2)c2ccccc12 (single isomer, unassigned) [Compound 347, (R or S)-1-(1-(1-(2-hydroxyethyl)piperidin-4-yl)ethyl)-N-((4-methoxy-6-methyl-2-oxo-1,2-dihydropyridin-3-yl)methyl)-2-methyl-1H-indole-3-carboxamide] | < 100 | – | < 100 | 400 to 2000 | – | –
COc1cc(C)[nH]c(=O)c1CNC(=O)c1c(C)n(C(C)C2CCN(CC(C)(C)O)CC2)c2ccccc12 (single isomer, unassigned) [Compound 352, (R or S)-1-(1-(1-(2-hydroxy-2-methylpropyl)piperidin-4-yl)ethyl)-N-((4-methoxy-6-methyl-2-oxo-1,2-dihydropyridin-3-yl)methyl)-2-methyl-1H-indole-3-carboxamide] | < 100 | – | < 100 | 400 to 2000 | – | –
COc1cc(C)[nH]c(=O)c1CNC(=O)c1c(C)n(C(C)C2CCC(S(=O)(=O)C(C)C)CC2)c2ccccc12 (single isomer, unassigned) [Compound 355, (R or S)-1-(1-(4-(isopropylsulfonyl)cyclohexyl)ethyl)-N-((4-methoxy-6-methyl-2-oxo-1,2-dihydropyridin-3-yl)methyl)-2-methyl-1 H-indole-3-carboxamide] | < 100 | – | < 100 | < 400 | – | –
COc1cc(C)[nH]c(=O)c1CNC(=O)c1c(C)n(C(C)C2CCN(CCF)CC2)c2ccccc12 (single isomer, unassigned) [Compound 356, (R or S)-1-(1-(1-(2-fluoroethyl)piperidin-4-yl)ethyl)-N-((4-methoxy-6-methyl-2-oxo-1,2-dihydropyridin-3-yl)methyl-2-methyl-1H-indole-3-carboxamide] | < 100 | – | < 100 | < 400 | – | –
COc1cc(C)[nH]c(=O)c1CNC(=O)c1c(C)n(C(C)C2CCN(C(=O)OCC(C)C)CC2)c2ccccc12 (single isomer, unassigned) [Compound 357, (R or S)-isobutyl 4-(1-(3-(((4-methoxy-6-methyl-2-oxo-1,2-dihydropyridin-3-yl)methyl)carbamoyl)-2-methyl-1 H-indol-1-yl)ethyl)piperidine-1-carboxylate] | < 100 | – | < 100 | < 400 | – | –
COc1cc(C)[nH]c(=O)c1CNC(=O)c1c(C)n(C(C)C2CCN(C(C)C)CC2)c2ccccc12 (single isomer, unassigned) [Compound 358, (R or S)-1-(1-(1-isopropylpiperidin-4-yl)ethyl)-N-((4-methoxy-6-methyl-2-oxo-1,2-dihydropyridin-3-yl)methyl)-2-methyl-1H-indole-3-carboxamide] | < 100 | – | < 100 | 400 to 2000 | – | –
CCN1CCC(C(C)n2c(C)c(C(=O)NCc3c(OC)cc(C)[nH]c3=O)c3ccccc32)CC1 (single isomer, unassigned) [Compound 360, (R or S)-1-(1-(1-ethylpiperidin-4-yl)ethyl)-N-((4-methoxy-6-methyl-2-oxo-1,2-dihydropyridin-3-yl)methyl)-2-methyl-1 H-indole-3carboxamide] | < 100 | – | < 100 | 2000 to 10000 | – | –
COc1cc(C)[nH]c(=O)c1CNC(=O)c1c(C)n(C(C)C2CCN(c3ncccn3)CC2)c2ccccc12 (single isomer, unassigned) [Compound 361, (R or S)—N-((4-methoxy-6-methyl-2-oxo-1,2-dihydropyridin-3-yl)methyl)-2-methyl-1-(1-1-(pyrimidin-2-yl)piperidin-4-yl)ethyl)-1H-indole-3-carboxamide] | < 100 | – | < 100 | < 400 | – | –
COc1cc(C)[nH]c(=O)c1CNC(=O)c1c(C)n(C(C)C2CCN(CC(F)F)CC2)c2ccccc12 (single isomer, unassigned) [Compound 362, (R or S)-1-(1-(1-(2,2-difluoroethyl)piperidin-4-yl)ethyl)-N-((4-methoxy-6-methyl-2-oxo-1,2-dihydropyridin-3-yl)methyl)-2-methyl-1H-indole-3-carboxamide] | < 100 | – | < 100 | < 400 | – | –
